Tests used:
Format in all cases: physicochemical
[1] = Solubility test of the additive alone in dichloromethane/methanol mixed solvent (visual, after 4 days); settings: for Solubility S0 (solids weight concentration at the dissolution limit): CH2Cl2/CH3OH 87/13
Method: The solubility of the functional additives was measured as follows.
1. Solutions were prepared by adjusting each concentration in a 50 cc screw cap bottle.
2. Allowed to stand at room temperature for 4 days. Here, the results of the solubility changed between 1 day and 4 days in some cases, and evaluation of the solubility was carried out after 4 days as a time when equilibrium was reached.
3. Samples were prepared in the same manner at other temperatures (20° C., 35° C.), and the solubility after allowing to stand for 4 days was visually inspected.
Predetermined amounts of Example Compounds I-(51) and I-(2) were weighed into a mixed solvent of dichloromethane and methanol, and the solubility was measured by changing the mixing ratio of the organic solvents.
The solubility (solids weight concentration at the dissolution limit was calculated as (C1+C2)/2 when the concentration limit at which it could be dissolved was C1 and the concentration limit at which it could not be dissolved was C2) of the retardation control agent in a mixed solvent having an initial methylene chloride/methanol composition ratio of 87/13 was defined as S0, and the solubility of the retardation control agent when the solvent composition changed, during drying, to 74/26 where the methanol wt % was the maximum was defined as S1. The temperature at which the solubility was measured is denoted by the figure in brackets.

[2] = as above
[3] = Measurement of micro heat of solution (multi-purpose calorimeter MPC-110); settings: for Degree of stabilization: Table 15; for Heat of solution ΔH0: solvent alone, 26.0° C.
Method: (2 Measurement of Micro Heat of Solution)
The heat of solution (dissolution enthalpy ΔH) of functional additives was measured as follows, using a multi-purpose calorimeter (MPC-110) manufactured by Tokyo Rikou as a micro heat of solution measuring instrument.
1. Solvent liquids and concentrated solutions were prepared beforehand in 1 L bottles.
2. Preparation of ampoule tubes
(1) Additives (powdered solid) were ground by a mortar and the granules were made uniform.
(2) A required amount (252 mg) of the additive to be measured was weighed into an ampoule tube for measurement of the micro heat of solution.
(3) The neck of the ampoule tube was heated sufficiently by a gas burner so as to seal the ampoule tube.
3. 50 g of the prepared solvent liquid or the concentrated solution was weighed into a measuring vessel. This amount was selected as an amount sufficient to immerse the ampoule tube in the solvent liquid when set in the measuring instrument.
4. The ampoule tube was set in the measuring instrument, which was equipped with an ampoule sealing mechanism, the measuring vessel was hermetically sealed with the ampoule sealing mechanism after confirming that the ampoule tube was immersed in the solvent liquid, it was placed in a constant temperature bath (26.0° C.), and stirring was started.
5. After confirming that the measuring instrument placed in the constant temperature bath had reached equilibrium temperature (about 8 to 12 hours) the ampoule tube was broken so as to mix the additive with the solvent liquid or the concentrated solution.
6. The total amount of heat generated was recorded.
7. The Joule's heat generated was measured by applying a known voltage to the measurement system for an appropriate time, and the recorded chart area for each measurement cell was calibrated using a known amount of heat.
8. The heat of solution of the sample was calculated from the Joule's heat and the measured sample area.
Shown in Table 11 are the solvent composition (wt %) and the solids composition (parts by weight) of the mother liquor when measuring the heat of solution, the type of retardation control agent sealed in the ampoule tube (Example Compounds I-(51) or I-(2)), and the results of measurement of the heat of solution.
The identification symbols of elements constituting the system are as follows: a denotes triacetylcellulose/plasticizer, b denotes triacetylcellulose, and c denotes plasticizer. For example, 2-87a denotes that the retardation control agent is the Example Compound I-(2), the solvent composition (wt %) is dichloromethane/methanol=87/13, and the solids constituting the system are triacetylcellulose and the plasticizer.
The heat of solution ΔH0 denotes the heat of solution (heat absorption) generated when there is no solid in the system (before breaking the ampoule tube) and the retardation control agent is dissolved in a solvent alone. […] The solids concentration of the system when saturation starts is defined as the saturation heat of solution solids concentration (wt %).
In all cases, when the solids concentration of the system is increased, the heat of solution either remains unchanged from that at a solids concentration of 0 wt % (the saturation heat of solution solids concentration is 0) or decreases and becomes saturated. […] This degree of stabilization is expressed as ΔH0−ΔHs, which is the decrease in the heat of solution.

[4] = 87/13, solids b: triacetylcellulose only
[5] = 87/13, solids c: plasticizer only

Structure (SMILES): COc1ccc(Nc2nc(Nc3cccc(C)c3)nc(Nc3cccc(C)c3)n2)cc1 [Example Compound I-(2)]
- Ratio S1/S0 ([1]; 20° C., 87/13 vs 74/26): 0.636
- Solubility S0 (solids weight concentration at the dissolution limit) ([1]; 20° C.): 27.5 wt %
- Ratio S1/S0 ([1]; 25° C., 87/13 vs 74/26): 0.636
- Difference S0 − S1 ([1]; 35° C., 87/13 vs 74/26): 10 wt %
- Ratio S1/S0 ([1]; 35° C., 87/13 vs 74/26): 0.692
- Solubility S1 (solids weight concentration at the dissolution limit) ([1]; 35° C., CH2Cl2/CH3OH 74/26): 22.5 wt %
- Solubility S0 (solids weight concentration at the dissolution limit) ([1]; 35° C.): 32.5 wt %
- Solubility in dichloromethane/methanol mixed solvent (in words) ([2]; 20° C. and 35° C.): excellent
- Difference S0 − S1 ([2]; 20° C., 87/13 vs 74/26): 10 wt %
- Difference S0 − S1 ([2]; 20° C., 92/8 vs 91/9): 0 wt %
- Ratio S1/S0 ([2]; 20° C., 92/8 vs 91/9): 1.000
- Solubility S1 (solids weight concentration at the dissolution limit) ([2]; 20° C., CH2Cl2/CH3OH 74/26): 17.5 wt %
- Solubility S1 (solids weight concentration at the dissolution limit) ([2]; 20° C., CH2Cl2/CH3OH 91/9): 32.5 wt %
- Solubility S0 (solids weight concentration at the dissolution limit) ([2]; 20° C., CH2Cl2/CH3OH 92/8): 32.5 wt %
- Difference S0 − S1 ([2]; 25° C., 87/13 vs 74/26): 10 wt %
- Difference S0 − S1 ([2]; 25° C., 92/8 vs 91/9): 0 wt %
- Ratio S1/S0 ([2]; 25° C., 92/8 vs 91/9): 1.000
- Solubility S1 (solids weight concentration at the dissolution limit) ([2]; 25° C., CH2Cl2/CH3OH 74/26): 17.5 wt %
- Solubility S0 (solids weight concentration at the dissolution limit) ([2]; 25° C., CH2Cl2/CH3OH 87/13): 27.5 wt %
- Solubility S1 (solids weight concentration at the dissolution limit) ([2]; 25° C., CH2Cl2/CH3OH 91/9): 32.5 wt %
- Solubility S0 (solids weight concentration at the dissolution limit) ([2]; 25° C., CH2Cl2/CH3OH 92/8): 32.5 wt %
- Difference S0 − S1 ([2]; 35° C., 92/8 vs 91/9): 0 wt %
- Ratio S1/S0 ([2]; 35° C., 92/8 vs 91/9): 1.000
- Solubility S1 (solids weight concentration at the dissolution limit) ([2]; 35° C., CH2Cl2/CH3OH 91/9): 32.5 wt %
- Solubility S0 (solids weight concentration at the dissolution limit) ([2]; 35° C., CH2Cl2/CH3OH 92/8): 32.5 wt %
- Degree of stabilization (ΔH0 − ΔHs) ([3]; 50/50, solids a): 0 kcal/mol
- Saturation heat of solution solids concentration ([3]; 50/50, solids a): 0 wt %
- Heat of solution ΔHs ([3]; 50/50, solids a: triacetylcellulose/plasticizer): 6.16 kcal/mol
- Degree of stabilization (ΔH0 − ΔHs) ([3]; 74/26, solids a): 0 kcal/mol
- Saturation heat of solution solids concentration ([3]; 74/26, solids a): 0 wt %
- Heat of solution ΔHs ([3]; 74/26, solids a: triacetylcellulose/plasticizer): 6.97 kcal/mol
- Degree of stabilization (ΔH0 − ΔHs) ([3]; 87/13, solids a: triacetylcellulose/plasticizer): 1.4 kcal/mol
- Heat of solution ΔHs ([3]; 87/13, solids a: triacetylcellulose/plasticizer (TPP/BDP)): 6.1 kcal/mol
- Degree of stabilization (ΔH0 − ΔHs) [3, 4]: 2 kcal/mol
- Heat of solution ΔHs [3, 4]: 5.5 kcal/mol
- Degree of stabilization (ΔH0 − ΔHs) [3, 5]: 1.1 kcal/mol
- Heat of solution ΔHs [3, 5]: 6.4 kcal/mol
- Degree of stabilization (ΔH0 − ΔHs) ([3]; 92/8, solids a): 1.38 kcal/mol
- Saturation heat of solution solids concentration ([3]; 92/8, solids a): 7 wt %
- Heat of solution ΔHs ([3]; 92/8, solids a: triacetylcellulose/plasticizer): 5.83 kcal/mol
- Degree of stabilization (ΔH0 − ΔHs) ([3]; 100/0, solids a): 1.35 kcal/mol
- Saturation heat of solution solids concentration ([3]; 100/0, solids a): 10 wt %
- Heat of solution ΔHs ([3]; 100/0, solids a: triacetylcellulose/plasticizer): 5.29 kcal/mol
- Degree of stabilization ([3]; dope Table 12, solvent composition 87/13): 1.40 kcal/mol
- Degree of stabilization ([3]; dope Table 13, solvent composition 92/8): 1.38 kcal/mol
- Degree of stabilization ([3]; dope Table 14, solvent composition 74/26): 0 kcal/mol
- Stabilization by solids in the system (in words) ([3]; case c: only the plasticizer present in the system): is stabilized
- Heat of solution ΔH0 ([3]; dichloromethane/methanol 50/50 wt %): 6.16 kcal/mol
- Heat of solution ΔH0 ([3]; dichloromethane/methanol 74/26 wt %): 6.97 kcal/mol
- Heat of solution ΔH0 ([3]; dichloromethane/methanol 87/13 wt %): 7.5 kcal/mol
- Heat of solution ΔH0 ([3]; dichloromethane/methanol 92/8 wt %): 7.21 kcal/mol
- Heat of solution ΔH0 ([3]; dichloromethane/methanol 100/0 wt %): 6.64 kcal/mol
